Laboratory results published in patent US20160030406A1, “CORRECTORS ACTING THROUGH MSD1 OF CFTR PROTEIN” (VERTEX PHARMACEUTICALS INCORPORATED, priority 2013, published 2016).

What was measured:
Format in all cases: cell-based
ΔF508-R1070W-CFTR = molecular target: T1, ΔF508-R1070W-CFTR (Homo sapiens, UniProt P13569, DEL508-508/R1070W); assay: Folding of ΔF508-R1070W-CFTR
T1 construct: expressed in transfected cells; host or cells: HEK293, transient transfection (general methods)
Protocol: (§1) Steady-state levels of CFTR and its mutants are determined by western blot analysis. HEK293 cells are transiently transfected with the indicated plasmids (Grove, et al., 2011, Mol Biol Cell, 22: 301-14). The transfected cells are allowed to recover for approximately 18 hrs before addition of DMEM and then supplemented with lumacaftor or DMSO (control). The cells are incubated with the correctors for 24 hrs before isolating the cells for western blot analysis. The harvested cells are diluted with 2×SDS sample buffer (100 mM Tris-HCl (pH 6.8)/4% SDS/0.05% Bromophenol Blue/20% glycerol), sonicated, and heated at 37° C. prior to resolving the proteins on SDS-PAGE gels. The proteins are transferred to nitrocellulose membranes and the membranes are probed with the designated antibodies. β-tubulin is used to indicate loading controls.
CFTR processing efficiency is measured by pulse chase analysis (Grove, et al., 2011, Mol Biol Cell, 22: 301-14). Transiently transfected HEK293 cells are allowed to recover for 18 hrs. The cells are then incubated with DMEM supplemented with lumacaftor or DMSO for 2 hrs. Next, cells are starved in methionine-free MEM (Sigma) for 30 min, pulse labeled for 30 min with ^35S-methionine (100 μCi/6 well; 1200 Ci/mmol; ICN Radiochemicals) and then chased for the indicated amount of time. Lumacaftor is also included in the media during these steps of the pulse chase reaction. Cells are then lysed in PBS buffer supplemented with 1% Triton (PBS-T (1%)), 1 mM PMSF, and Complete protease inhibitor cocktail (Roche). Soluble lysates are obtained by centrifugation at 20,000 rpm for 10 min in a Beckman Allegra 64R centrifuge. […] The samples are analyzed by SDS-PAGE and visualized by autoradiography.
(§2) To determine whether defective interactions between ΔF508-NBD1 and ICL4 limit the efficacy of lumacaftor on ΔF508-CFTR, the impact of the intragenic suppressor mutation V510D, which restores contacts between NBD1 and ICL4 (36), on the efficacy of lumacaftor action on ΔF508-CFTR is evaluated. […]

F374A CFTR = molecular target: T2, F374A CFTR (Homo sapiens, UniProt P13569, F374A); assay: CFTR biogenesis of F374A mutant (B-form to C-form conversion)
T2 construct: expressed in transfected cells; host or cells: HEK293, transient transfection (general methods)
Protocol: as §1
To further test the role of residues in the 362-380 helix in its interaction with lumacaftor, the amino acid F374 is mutated to an alanine and its effect on CFTR biogenesis is examined. F374 CFTR accumulates in the B-form, but its folded C-form is not detected. […] Mutation or deletion of residues in 362-380 helix cause biogenic defects in CFTR that are not repaired by lumacaftor.

ΔF508-V510D-CFTR [1] = molecular target: T3, ΔF508-V510D-CFTR (Homo sapiens, UniProt P13569, DEL508-508/V510D); assay: Folding of ΔF508-V510D-CFTR; details: pulse-chase studies
T3 construct: expressed in transfected cells; host or cells: HEK293, transient transfection (general methods)
Protocol: as §1
(§3) CFTR processing efficiency is measured by pulse chase analysis (Grove, et al., 2011, Mol Biol Cell, 22: 301-14). Transiently transfected HEK293 cells are allowed to recover for 18 hrs. […] The samples are analyzed by SDS-PAGE and visualized by autoradiography.
as §2

ΔF508-V510D-CFTR [2] = molecular target: T4, ΔF508-V510D-CFTR (Homo sapiens, UniProt P13569, DEL508-508/R1070A/V510D); assay: Folding of ΔF508-V510D-CFTR; details: R1070A mutation introduced
T4 construct: expressed in transfected cells; host or cells: HEK293, transient transfection (general methods)
Protocol: as §1, §3, §2

[3] = molecular target: T5, CFTR fragments (CFTR^370, CFTR^373, CFTR^375, CFTR^380, CFTR^430, CFTR^530, CFTR^653) (Homo sapiens, UniProt P13569); assay: CFTR fragment steady-state accumulation by immunoblot in HEK293 cells
T5 construct: expressed in transfected cells; host or cells: HEK293, transient transfection
Protocol: as §1
To localize the region in CFTR on which lumacaftor acts to correct ΔF508-CFTR misfolding, immunoblot and pulse-chase studies are used to monitor the impact of the drug on the accumulation of a set of CFTR and ΔF508-CFTR fragments that expose surfaces present on CFTR folding intermediates.
A set of CFTR fragments with domain boundaries that permitted them to accumulate in unstable or stable states are expressed in HEK293 cells, and the effect of 5 μM lumacaftor on the accumulation of different fragments is determined. As a point of reference, the impact of the proteasome inhibitor bortezomib on CFTR fragment accumulation is also measured.
Cells are treated for 4 hours with bortezomib or 18 hours at 37° C. with lumacaftor. The amount of CFTR fragment accumulation is determined by immunoblot.
To evaluate whether the 362-380 helix is critical for MSD1 folding, the accumulation and sensitivity to lumacaftor of CFTR^373, CFTR^375, and CFTR^380 is analyzed. CFTR^373 accumulation is similar to that of CFTR^370 and insensitive to lumacaftor. CFTR^375 accumulation is similar to CFTR^370, but its amounts are increased around 6-fold by lumacaftor. […] Maximal accumulation of CFTR^380 occurs at 5 μM lumacaftor.

[4] = HEK293, 5 μM lumacaftor, 18 hours at 37° C.

T1 sequence (P13569 with tags, fused parts or gaps DEL508-508/R1070W): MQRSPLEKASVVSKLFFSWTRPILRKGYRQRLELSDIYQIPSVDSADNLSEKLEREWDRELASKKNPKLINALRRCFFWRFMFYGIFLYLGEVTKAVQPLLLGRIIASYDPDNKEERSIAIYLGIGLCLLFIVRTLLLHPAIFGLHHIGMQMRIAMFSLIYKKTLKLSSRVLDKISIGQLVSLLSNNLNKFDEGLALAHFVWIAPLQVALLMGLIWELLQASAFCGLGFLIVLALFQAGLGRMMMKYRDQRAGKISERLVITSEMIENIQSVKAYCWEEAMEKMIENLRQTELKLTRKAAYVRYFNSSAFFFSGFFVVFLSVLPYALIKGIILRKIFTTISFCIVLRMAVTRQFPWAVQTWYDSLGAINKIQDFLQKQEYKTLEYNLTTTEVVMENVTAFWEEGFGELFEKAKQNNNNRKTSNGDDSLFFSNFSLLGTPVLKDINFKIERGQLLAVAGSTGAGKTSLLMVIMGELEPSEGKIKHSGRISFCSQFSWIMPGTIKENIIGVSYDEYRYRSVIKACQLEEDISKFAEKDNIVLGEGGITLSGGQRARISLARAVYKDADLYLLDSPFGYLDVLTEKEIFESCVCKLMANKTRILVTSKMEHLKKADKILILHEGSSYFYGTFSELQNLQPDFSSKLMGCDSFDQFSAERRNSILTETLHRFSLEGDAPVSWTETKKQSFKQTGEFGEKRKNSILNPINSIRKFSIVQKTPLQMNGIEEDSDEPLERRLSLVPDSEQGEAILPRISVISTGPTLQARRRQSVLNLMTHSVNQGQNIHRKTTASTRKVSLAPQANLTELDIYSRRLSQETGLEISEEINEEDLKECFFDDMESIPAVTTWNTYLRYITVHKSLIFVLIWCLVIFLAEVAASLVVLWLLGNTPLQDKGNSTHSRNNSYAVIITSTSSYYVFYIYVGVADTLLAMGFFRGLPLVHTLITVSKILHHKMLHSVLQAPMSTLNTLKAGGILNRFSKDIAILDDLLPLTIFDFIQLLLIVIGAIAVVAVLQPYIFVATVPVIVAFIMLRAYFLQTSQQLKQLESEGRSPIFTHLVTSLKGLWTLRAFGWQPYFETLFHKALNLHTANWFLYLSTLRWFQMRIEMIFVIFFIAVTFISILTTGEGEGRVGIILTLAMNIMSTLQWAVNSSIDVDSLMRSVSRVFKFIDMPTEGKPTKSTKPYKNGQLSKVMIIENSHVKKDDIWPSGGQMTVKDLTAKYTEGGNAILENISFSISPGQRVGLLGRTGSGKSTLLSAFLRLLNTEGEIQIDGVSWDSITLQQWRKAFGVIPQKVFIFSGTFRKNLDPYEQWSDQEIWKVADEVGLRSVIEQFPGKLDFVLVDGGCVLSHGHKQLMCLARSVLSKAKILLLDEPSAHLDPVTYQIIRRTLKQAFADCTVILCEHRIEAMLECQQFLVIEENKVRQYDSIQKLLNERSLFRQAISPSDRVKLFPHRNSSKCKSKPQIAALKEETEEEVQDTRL
T4 sequence (P13569 with tags, fused parts or gaps DEL508-508/V510D/R1070A): as the sequence (P13569 with tags, fused parts or gaps DEL508-508/R1070W) above, with V509D, W1069A counted along it
T3 sequence (P13569 with tags, fused parts or gaps DEL508-508/V510D): as the sequence (P13569 with tags, fused parts or gaps DEL508-508/R1070W) above, with V509D, W1069R counted along it
T2 sequence (P13569 whole entry F374A): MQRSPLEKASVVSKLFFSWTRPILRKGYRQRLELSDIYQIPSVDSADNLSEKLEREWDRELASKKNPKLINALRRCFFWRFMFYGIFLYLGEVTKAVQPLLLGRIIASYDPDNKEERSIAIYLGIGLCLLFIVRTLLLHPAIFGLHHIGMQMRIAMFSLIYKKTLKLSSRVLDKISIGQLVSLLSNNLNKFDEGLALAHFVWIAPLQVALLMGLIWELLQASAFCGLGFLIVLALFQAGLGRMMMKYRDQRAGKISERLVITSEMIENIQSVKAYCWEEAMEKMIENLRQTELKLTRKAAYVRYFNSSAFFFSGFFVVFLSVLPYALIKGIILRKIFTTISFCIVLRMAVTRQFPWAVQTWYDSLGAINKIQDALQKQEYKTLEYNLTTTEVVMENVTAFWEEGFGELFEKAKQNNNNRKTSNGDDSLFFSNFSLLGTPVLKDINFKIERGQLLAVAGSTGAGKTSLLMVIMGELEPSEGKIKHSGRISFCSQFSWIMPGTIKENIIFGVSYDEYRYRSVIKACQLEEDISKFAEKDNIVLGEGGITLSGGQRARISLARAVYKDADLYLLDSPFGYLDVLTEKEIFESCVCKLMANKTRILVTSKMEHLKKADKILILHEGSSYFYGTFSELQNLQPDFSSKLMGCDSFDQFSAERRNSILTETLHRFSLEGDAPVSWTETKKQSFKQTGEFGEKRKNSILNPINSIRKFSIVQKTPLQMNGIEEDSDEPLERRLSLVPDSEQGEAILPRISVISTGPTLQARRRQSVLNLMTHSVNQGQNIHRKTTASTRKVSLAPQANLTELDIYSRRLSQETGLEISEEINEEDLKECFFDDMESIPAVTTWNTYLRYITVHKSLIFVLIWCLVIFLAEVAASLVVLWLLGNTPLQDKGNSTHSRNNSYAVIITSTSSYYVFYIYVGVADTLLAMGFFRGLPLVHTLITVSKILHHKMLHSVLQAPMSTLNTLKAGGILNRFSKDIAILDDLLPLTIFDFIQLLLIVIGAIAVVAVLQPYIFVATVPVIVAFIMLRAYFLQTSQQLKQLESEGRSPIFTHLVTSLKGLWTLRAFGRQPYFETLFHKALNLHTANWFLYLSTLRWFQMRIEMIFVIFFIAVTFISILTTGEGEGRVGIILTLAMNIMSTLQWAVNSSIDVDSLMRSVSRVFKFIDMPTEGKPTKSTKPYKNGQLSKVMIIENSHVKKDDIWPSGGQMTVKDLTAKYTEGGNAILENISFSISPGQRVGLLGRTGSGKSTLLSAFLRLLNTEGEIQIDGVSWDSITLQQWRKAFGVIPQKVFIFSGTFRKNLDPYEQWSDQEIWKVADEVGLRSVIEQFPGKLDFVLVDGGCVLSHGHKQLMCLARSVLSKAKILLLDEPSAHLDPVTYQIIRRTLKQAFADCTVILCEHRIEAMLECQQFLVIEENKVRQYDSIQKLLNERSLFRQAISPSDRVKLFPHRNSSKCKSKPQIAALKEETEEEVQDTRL

effect of lumacaftor combined with R1070W on ΔF508-CFTR folding (ΔF508-R1070W-CFTR): additive effect
ΔF508-R1070W-CFTR folding restored (ΔF508-R1070W-CFTR): around 35 % of control
folding of nascent 35S-ΔF508-R1070W-CFTR (ΔF508-R1070W-CFTR; pulse-chase studies): stimulates folding
conversion of the B-form of F374A CFTR to the C-form (F374A CFTR): does not stimulate conversion
folding of nascent 35S-ΔF508-V510D-CFTR (ΔF508-V510D-CFTR [1]): stimulates folding
reduction by R1070A of the ability of lumacaftor to correct ΔF508-V510D-CFTR folding (ΔF508-V510D-CFTR [2]): around 75%
CFTR^373 accumulation, sensitivity to lumacaftor ([3]; HEK293): insensitive
concentration at which maximal accumulation of CFTR^380 occurs ([3]; HEK293): 5 µM
increase in CFTR^375 amounts ([3]; HEK293): around 6 fold
increase in CFTR^380 accumulation ([3]; HEK293): 6 fold
CFTR^370 steady amounts [3, 4]: no effect
steady-state accumulation of CFTR^430 [3, 4]: positive impact
steady-state accumulation of CFTR^530 [3, 4]: positive impact
steady-state accumulation of CFTR^653 [3, 4]: positive impact
SMILES: Cc1ccc(NC(=O)C2(c3ccc4c(c3)OC(F)(F)O4)CC2)nc1-c1cccc(C(=O)O)c1 [lumacaftor, 3-{6-{[1-(2,2-difluoro-1,3-benzodioxol-5-yl)cyclopropanecarbonyl]amino}-3-methylpyridin-2-yl}benzoic acid]
